≈ marks a conversion by molar mass, not a printed value. Values belong to the compound of their own block, whether it stands above or below them.
How the values were obtained:
[1] = Intrinsic clearance in human hepatocytes assessed per million cells at 1 uM measured up to 120 mins in presence of NADPH by LC-MS/MS analysis; type: ADME, cell-based, Hepatocyte; details: read-out: CLH
[2] = Intrinsic clearance in Han Wistar rat hepatocytes assessed per million cells at 1 uM after 4 hrs by LC/MS/MS analysis; type: ADME, cell-based, Hepatocyte; details: read-out: CLH
[3] = target: T1, Mineralocorticoid receptor (Rattus norvegicus, UniProt P22199)
T1 sequence (P22199 whole entry): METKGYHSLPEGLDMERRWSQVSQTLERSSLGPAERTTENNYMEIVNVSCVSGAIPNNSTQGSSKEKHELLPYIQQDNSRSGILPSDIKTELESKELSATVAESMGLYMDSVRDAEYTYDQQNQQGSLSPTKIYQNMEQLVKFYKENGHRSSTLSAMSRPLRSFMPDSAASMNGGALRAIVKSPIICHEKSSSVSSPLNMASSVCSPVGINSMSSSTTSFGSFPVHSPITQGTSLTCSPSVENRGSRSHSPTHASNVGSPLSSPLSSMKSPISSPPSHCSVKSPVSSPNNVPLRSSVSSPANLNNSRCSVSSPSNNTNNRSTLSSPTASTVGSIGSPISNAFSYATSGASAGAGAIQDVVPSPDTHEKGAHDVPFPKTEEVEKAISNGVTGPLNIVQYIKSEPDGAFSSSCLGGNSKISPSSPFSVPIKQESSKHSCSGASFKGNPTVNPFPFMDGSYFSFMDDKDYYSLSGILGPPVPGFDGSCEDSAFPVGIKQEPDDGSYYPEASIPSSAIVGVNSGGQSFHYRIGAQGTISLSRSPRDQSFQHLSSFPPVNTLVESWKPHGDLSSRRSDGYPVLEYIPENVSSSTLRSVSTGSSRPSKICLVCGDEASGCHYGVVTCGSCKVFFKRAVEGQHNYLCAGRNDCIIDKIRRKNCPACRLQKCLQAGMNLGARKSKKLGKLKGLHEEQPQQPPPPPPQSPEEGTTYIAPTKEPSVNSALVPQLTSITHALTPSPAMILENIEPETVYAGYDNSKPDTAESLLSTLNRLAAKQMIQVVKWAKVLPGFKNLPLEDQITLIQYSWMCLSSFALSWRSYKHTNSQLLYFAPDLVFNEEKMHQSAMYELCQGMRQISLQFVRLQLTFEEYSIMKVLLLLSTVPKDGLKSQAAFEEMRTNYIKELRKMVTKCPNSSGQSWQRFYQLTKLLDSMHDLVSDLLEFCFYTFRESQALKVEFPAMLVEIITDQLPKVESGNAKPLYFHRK
Description: (§1) Antagonist activity at gal4-fused rat mineralocorticoid receptor LBD in expressed in human U2OS cells by luciferase reporter gene assay

[4] = Clearance in Han Wistar rat at 1.2 mg/kg, iv by LC-MS/MS analysis; type: ADME, organism-based; details: in vivo
[5] = Octanol-water partitioning co-efficient, log D of the compound at pH 7.4 by LC/MS/MS analysis; type: physicochemical
[6] = Oral bioavailability in Han Wistar rat at […] by LC-MS/MS analysis; type: ADME, organism-based; details: in vivo
[7] = Fraction unbound in Han Wistar rat plasma at 1 uM after 4 hrs by LC/MS/MS analysis; type: ADME, cell-free
[8] = Apparent permeability in human Caco2 cells at 10 uM after 45 to 120 mins by LC/MS/MS analysis; type: ADME, cell-based; details: Caco-2
[9] = Volume of distribution at steady state in Han Wistar rat at 1.2 mg/kg, iv by LC-MS/MS analysis; type: ADME, organism-based; details: in vivo, read-out: Vdss
[10] = Terminal half life in Han Wistar rat at 1.2 mg/kg, iv by LC-MS/MS analysis; type: ADME, organism-based; details: in vivo, read-out: beta t1/2 (converted)
[11] = system: Rattus norvegicus; assay: Induction of hyperkalemia in Sprague-Dawley rat fed on low salt diet for 72 hrs assessed as increase in Na+/K+ ratio in urine administered via oral gavage after 8 hrs; type: organism-based; details: in vivo
[12] = target: T2, Glucocorticoid receptor (Homo sapiens, UniProt P04150)
T2 sequence (P04150 whole entry): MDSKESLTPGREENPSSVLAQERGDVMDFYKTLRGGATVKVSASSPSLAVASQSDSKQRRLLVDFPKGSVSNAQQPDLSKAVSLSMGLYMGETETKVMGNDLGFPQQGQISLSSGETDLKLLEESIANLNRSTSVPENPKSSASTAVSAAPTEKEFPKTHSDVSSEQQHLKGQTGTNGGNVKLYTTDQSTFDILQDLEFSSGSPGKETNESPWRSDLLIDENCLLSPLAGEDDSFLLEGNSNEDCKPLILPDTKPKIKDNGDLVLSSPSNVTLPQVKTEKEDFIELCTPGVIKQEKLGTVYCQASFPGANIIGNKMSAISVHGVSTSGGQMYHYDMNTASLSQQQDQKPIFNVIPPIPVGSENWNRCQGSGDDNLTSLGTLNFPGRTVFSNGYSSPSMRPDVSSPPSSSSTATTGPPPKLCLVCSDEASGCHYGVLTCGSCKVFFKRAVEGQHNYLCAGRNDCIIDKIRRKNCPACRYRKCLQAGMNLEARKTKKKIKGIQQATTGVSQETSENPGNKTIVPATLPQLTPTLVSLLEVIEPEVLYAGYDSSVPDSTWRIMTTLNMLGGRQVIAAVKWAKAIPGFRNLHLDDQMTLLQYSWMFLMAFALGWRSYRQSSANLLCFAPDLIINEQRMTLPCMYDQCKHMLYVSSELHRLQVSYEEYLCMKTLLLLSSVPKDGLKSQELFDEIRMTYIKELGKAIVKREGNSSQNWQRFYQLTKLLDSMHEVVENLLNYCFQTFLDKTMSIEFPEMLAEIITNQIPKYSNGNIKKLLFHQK
Description: Binding affinity to recombinant human GR LBD by fluormone GS red-fluorescence polarization assay

[13] = Intrinsic clearance in human liver microsomes at 1 uM measured up to 30 mins in presence of NADPH by LC-MS/MS analysis; type: ADME, Microsome; details: read-out: CLH
[14] = Volume of distribution at steady state in Sprague-Dawley rat at 1 mg/kg, iv by LC-MS/MS analysis; type: ADME, organism-based; details: in vivo, read-out: Vdss
[15] = Clearance in Sprague-Dawley rat at 1 mg/kg, iv by LC-MS/MS analysis; type: ADME, organism-based; details: in vivo
[16] = Terminal half life in Sprague-Dawley rat at 1 mg/kg, iv by LC-MS/MS analysis; type: ADME, organism-based; details: in vivo, read-out: beta t1/2 (converted)
[17] = Kinetic solubility of compound at pH 7.4 after 24 hrs by shake-flask assay; type: physicochemical; details: buffer, read-out: -log(solubility) (converted)
[18] = target: T3, Progesterone receptor (Homo sapiens, UniProt P06401); assay: Binding affinity to recombinant human progesterone receptor LBD by fluormone PL red-fluorescence polarization assay
T3 sequence (P06401 whole entry): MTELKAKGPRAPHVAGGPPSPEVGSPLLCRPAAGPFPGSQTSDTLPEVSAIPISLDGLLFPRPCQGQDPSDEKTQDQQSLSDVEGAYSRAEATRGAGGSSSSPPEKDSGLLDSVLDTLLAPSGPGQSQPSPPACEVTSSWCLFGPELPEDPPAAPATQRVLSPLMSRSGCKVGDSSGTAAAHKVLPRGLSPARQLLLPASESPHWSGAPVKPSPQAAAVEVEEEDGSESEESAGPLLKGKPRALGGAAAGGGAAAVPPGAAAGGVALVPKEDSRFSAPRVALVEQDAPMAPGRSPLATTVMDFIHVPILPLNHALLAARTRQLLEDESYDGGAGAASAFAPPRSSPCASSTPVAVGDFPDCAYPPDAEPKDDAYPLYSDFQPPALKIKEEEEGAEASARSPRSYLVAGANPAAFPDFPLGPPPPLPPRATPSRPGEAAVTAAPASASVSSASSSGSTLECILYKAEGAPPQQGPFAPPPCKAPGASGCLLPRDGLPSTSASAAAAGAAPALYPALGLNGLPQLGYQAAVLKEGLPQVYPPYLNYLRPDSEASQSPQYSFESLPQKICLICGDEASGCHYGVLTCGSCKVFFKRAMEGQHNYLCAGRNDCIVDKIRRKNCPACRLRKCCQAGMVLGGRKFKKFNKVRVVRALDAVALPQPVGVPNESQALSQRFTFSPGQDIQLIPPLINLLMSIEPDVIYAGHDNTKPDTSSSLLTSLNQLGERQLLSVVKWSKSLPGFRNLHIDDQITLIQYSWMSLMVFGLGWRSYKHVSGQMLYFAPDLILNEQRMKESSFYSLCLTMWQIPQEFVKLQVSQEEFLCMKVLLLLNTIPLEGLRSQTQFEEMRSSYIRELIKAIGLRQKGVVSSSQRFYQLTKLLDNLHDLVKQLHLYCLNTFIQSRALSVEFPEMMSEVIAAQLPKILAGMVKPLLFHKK

[19] = Oral bioavailability in Sprague-Dawley rat at 3 mg/kg by LC-MS/MS analysis; type: ADME, organism-based; details: in vivo
[20] = Clearance in Han Wistar rat at 1 to 1.2 mg/kg, iv by LC-MS/MS analysis; type: ADME, organism-based; details: in vivo
[21] = Terminal half life in Han Wistar rat at 1 to 1.2 mg/kg, iv by LC-MS/MS analysis; type: ADME, organism-based; details: in vivo, read-out: beta t1/2 (converted)
[22] = target: T1, Mineralocorticoid receptor; details: u2os
Description: as §1

[23] = Volume of distribution at steady state in Han Wistar rat at 1 to 1.2 mg/kg, iv by LC-MS/MS analysis; type: ADME, organism-based; details: in vivo, read-out: Vdss
[24] = Oral bioavailability in Han Wistar rat at 2.7 mg/kg by LC-MS/MS analysis; type: ADME, organism-based; details: in vivo

- hepatocyte CLint at 1 µM [1]: 3 µL/min/1e6 cells
- hepatocyte CLint at 1 µM [2]: 19 µL/min/1e6 cells
- IC50 [3]: 10 nM
- clearance [4]: 44 mL/min/kg
- logD [5]: 2
- bioavailability [6]: 11%
- fraction unbound at 4 h, 1 µM [7]: 0.4
- Papp at 10 µM [8]: 21 ×10⁻⁶ cm/s
- Vd [9]: 1.5 L/kg
- half-life [10]: 25.8 min
Structure (SMILES): CNC(=O)C[C@H]1COc2cc(Cl)ccc2N1C(=O)c1ccc2c(c1)NC(=O)CO2
- Activity [11]: Non-Toxic

- hepatocyte CLint at 1 µM [2]: 14 µL/min/1e6 cells
- Ki [12]: 1260 nM
- microsomal CLint at 1 µM [13]: 8 µL/min/mg
- logD [5]: 2.6
- Vd [14]: 1.7 L/kg
- clearance [15]: 8 mL/min/kg
- half-life [16]: 144 min
- fraction unbound at 4 h, 1 µM [7]: 0.091
- solubility kinetic at 24 h [17]: 25.1 µM (≈ 8.6 µg/mL)
- Ki [18]: 25100 nM
- bioavailability [19]: 76%
Structure (SMILES): C[C@H]1COc2cc(F)ccc2N1C(=O)c1ccc2c(c1)NC(=O)CO2
- Activity [11]: Toxic

- hepatocyte CLint at 1 µM [1]: < 1 µL/min/1e6 cells
- clearance [20]: 24 mL/min/kg
- hepatocyte CLint at 1 µM [2]: 5 µL/min/1e6 cells
- logD [5]: 1.4
- half-life [21]: 28.8 min
- pIC50 [22]: 7.1
- fraction unbound at 4 h, 1 µM [7]: 0.61
- Vd [23]: 0.7 L/kg
- Papp at 10 µM [8]: 5 ×10⁻⁶ cm/s
- bioavailability [24]: 32%
Structure (SMILES): CNC(=O)C[C@H]1COc2cc(F)ccc2N1C(=O)c1ccc2c(c1)NC(=O)CO2 [BALCINRENONE]
- Activity [11]: Non-Toxic

Reference: ChEMBL document CHEMBL4422622, “Identification of Mineralocorticoid Receptor Modulators with Low Impact on Electrolyte Homeostasis but Maintained Organ Protection” (J Med Chem, 2019)
